Consider 2 molecules from patent publication US9228991B2, “Methods and kits for detection of drugs” (RAMOT AT TEL-AVIV UNIVERSITY LTD., priority 2010, dated 2016).

SMILES strings stand for the structures. Where two headings read alike, the source gives them in different places.

The conditions of data set [1]: cited from earlier work.
The nature of data set [2]: GHB solubility / precipitation in anti-solvents.
For data set [3] the following is noted: cited from earlier work. The source holds these as a separate data set.

Turning to `O=C(O)CCCO` [GHB, gamma-hydroxybutyrate], the “Physical Effect” value in data set [1] (GHB dose 4-8 (very high), 4-8% in drink) was “Powerful deep sleep”. The “dose at which a dangerous overdose can occur” value in data set [1] (depending on body weight and metabolism) is “two”. Moreover, the heavy dose result in data set [1] (in vivo) is “approximately 2.5 grams”. The solubility in anti-solvent entry in data set [2] (acetonitrile) and in data set [2] (pure ethanol) was “mostly insoluble” each time.

Regarding `CNC1(c2ccccc2Cl)CCCCC1=O` (centres unmarked) [ketamine], the “Physical Effect” value was “Mild euphoria” in data set [3] (ketamine dose 10-80 mg (low), <0.01-0.08% in drink); “K-hole, near comatose state” in data set [3] (ketamine dose 130-250 mg (high), 0.13-0.25% in drink); “Powerful deep sleep” in data set [3] (ketamine dose >250 mg (mega), >0.25% in drink).
